The values below come from US20060280725A1, “Compositions and methods of treating and diagnosing hepatoma” (priority 2003, published 2006).

What is called Km is the substrate concentration at which the rate is half of its maximum.

The test system of this assay is human fetal liver fibroblasts (HFLF). Nature of the assay: Glutamine transport assay (inhibition and kinetic analysis). The format is cell-based. The procedure:
FIG. 5. Functional and molecular assessment of ATB^0 expression in human fetal liver fibroblasts (HFLF) and cirrhotic liver tissue. A) Amino acid inhibition analysis of Na^+-dependent glutamine uptake in human fetal liver fibroblasts. Fibroblasts were isolated and cultured as described in the Methods section, and amino acid inhibition analysis of 50 μM L-glutamine uptake was carried out as described in FIG. 1. *p<0.010 vs. control. The Eadie-Hofstee plot of the kinetic analysis is shown as an inset, with the dashed lines representing the resolved high and low affinity components of the composite data (solid line). The derived values of the kinetic constants for each component are given in the Results section. B) Northern blot analysis of ATB^0 expression in HFLF. Radiolabeled cDNA probes were generated with the Megaprime™ kit as described in the Methods section, and hybridized to 20 μg of total RNA from HFLF. Exposure time was 24 h. C) RT-PCR and restriction enzyme analysis of ATB^0 expression in HFLF, normal and cirrhotic liver. The analysis was carried out exactly as described in FIG. 3. Omission of RT is shown for the normal liver sample. D) Expression of ATB^0 in biopsies from a patient with liver cirrhosis and hepatocellular carcinoma (HCC). Northern blot analysis of ATB^0 & SN1 expression were performed on RNA extracted from the snap-frozen biopsies. RNA isolation and northern blot analysis was carried out as described in the Methods section, with full-length riboprobes used for detection of transporter mRNA. Exposure times for the blots are shown to illustrate relative expression levels for ATB^0 in each of the samples.
Glutamine Transport Assays. Measurement of initial-rate glutamine uptake was carried out via the cluster-tray method originally described by Gazzola (21) as reported previously (6, 9). Briefly, after trypsinization hepatoma cells were plated at a density of 1×10^5 cells/well in 24-well culture plates (Costar Corp., Cambridge, Mass.) and allowed to grow to >80% confluence, typically one to two days later. For initial-rate measurements, the radiotracer utilized was L-[G-^3H] glutamine (Amersham Corp., Arlington Heights, Ill.) at 4 μCi/ml, in the presence of unlabeled L-glutamine at 50 μM. For kinetic studies, the amount of unlabeled glutamine in the transport buffer varied from 10 μM to 10 mM. All transport measurements were carried out at 37° C. and were terminated after 30 s by three rapid washes with an ice-cold phosphate-buffered saline solution. Intracellular radiolabeled glutamine was extracted with 0.2 ml/well of 0.2% sodium dodecyl sulfate (SDS) and 0.2 N NaOH; after 1 h, 0.1 ml of the lysate was neutralized with 10 μl of 2 N HCl and subjected to scintillation spectrophotometry in a Packard TopCount™ (Packard Instruments, Meriden, Conn.). The remaining lysate was utilized for the determination of cellular protein by the bicinchoninic acid (BCA) method (Pierce Chemical Co., Rockford, Ill.). Rates of glutamine transport were calculated from the cpm per sample, the specific activity of the uptake mix (in cpm/nmol) and normalized to cellular protein content in a Microsoft Excel® spreadsheet program. Transport values obtained in the absence of extracellular Na^+ (diffusion and Na^+-independent uptake) were subtracted from those in the presence of Na^+ (total uptake) to yield Na^+-dependent rates which are reported in units of nmol•mg^−1 protein•30 s^−1. All transport values depicted are the average±standard deviation of four separate determinations. Kinetic analysis of Eadie-Hofstee linearized transport data (v vs. v/[L-GLN]) was performed by regression analysis (Cricket Graph®, Computer Associates, Islandia, N.Y.). Nonlinear regression analysis was performed with DataDesk (Data Description, Inc. Ithaca, N.Y.) and Excel for two component Michaelis-Menten kinetics: v=((Vmax1×[S])/(Km1+[S])+(Vmax2×[S])/(Km2+[S])). […]

Like-named read-outs stand apart in the source and are kept apart here.

As to `NC(=O)CC[C@H](N)C(=O)O` [glutamine, L-glutamine], the “Vmax, high affinity component” value is 5.3 nmol•mg^−1 protein•30 s^−1 and the “Vmax, low affinity component” value was 3.1 nmol•mg^−1 protein•30 s^−1. In addition, the Km (read-out: Km, high affinity component) was determined as 163 µM. Also, the Km (read-out: Km, low affinity component) amounted to 1200 µM.
